In patent US8076116B2, “Nucleic acids encoding class II human histone deacetylases, and uses related thereto” (priority 2000, dated 2011):

Experiments:
HDAC4 [1] = format: cell-based, human; conditions: TAg Jurkat cells treated 1.5 hours; for HDAC activity of the purified HDAC4 complex: immunoprecipitate
Source text: (§1) In addition, an increase in the overall HDAC activity of the purified complex was observed (FIG. 9A).
HDAC4 (SEQ ID NO:2) also contains a nuclear localization sequence (Hicks and Raikhel, 1995). In order to determine if the interaction with 14-3-3 blocks binding of the importin heterodimer, recombinant FLAG-tagged HDAC4 (SEQ ID NO:2) was immunoprecipitated from untreated, staurosporine-, and calyculin A-treated TAg-Jurkat cells and analyzed for binding to importin □ by Western blotting.
(§2) Cells were harvested 48 hours post-transfection. When required, cells were treated with 200 µM staurosporin (Calbiochem) or 20 nM calyculin A (Calbiochem) for 1.5 hours prior to harvesting.

HDAC5 [2] = format: cell-based, human; conditions: TAg Jurkat cells treated 1.5 hours; for HDAC5 association with HDAC3 / binding of HDAC5 to either 14-3-3 isoform: Western blot; for HDAC activity of the purified HDAC5 complex: immunoprecipitate
Experimental: as §1, §2

HDAC4 [3] = molecular target: HDAC4 (Homo sapiens, UniProt P56524); conditions: 300 nM TSA, 10 minutes prior to addition of labeled histones
Source text: (§3) The NCBI database was screened with the yeast Hda1p amino acid sequence to identify human homologs. The complete ORFs of HDAC 4 (SEQ ID NO:2), 5 (SEQ ID NO:4), and 6 (SEQ ID NO:6) were constructed as described in Methods. […] The two catalytic regions in HDAC6 (SEQ ID NO:6) are highly homologous to each other (47% identity, 64% similarity) and therefore the protein may have arisen evolutionarily from an in frame gene duplication event. […] C. In Vitro Histone Deacetylase Activity of Class II HDACs.

HDAC5 [4] = molecular target: HDAC5 (Homo sapiens, UniProt Q9UQL6); conditions: 300 nM TSA, 10 minutes prior to addition of labeled histones
Source text: as §3

HDAC6 = molecular target: T1, HDAC6 (Homo sapiens, UniProt Q9UBN7); assay: in vitro HDAC assay, release of 3H-acetate from labeled histones by immunoprecipitated FLAG-tagged HDAC6; format: biochemical; conditions: 300 nM TSA, 10 minutes prior to addition of labeled histones
T1 construct: made in house; host or cells: Sf9 insect cells (baculovirus, pVL1392, Baculogold)
T1 sequence (Q9UBN7 1-1215 T994I): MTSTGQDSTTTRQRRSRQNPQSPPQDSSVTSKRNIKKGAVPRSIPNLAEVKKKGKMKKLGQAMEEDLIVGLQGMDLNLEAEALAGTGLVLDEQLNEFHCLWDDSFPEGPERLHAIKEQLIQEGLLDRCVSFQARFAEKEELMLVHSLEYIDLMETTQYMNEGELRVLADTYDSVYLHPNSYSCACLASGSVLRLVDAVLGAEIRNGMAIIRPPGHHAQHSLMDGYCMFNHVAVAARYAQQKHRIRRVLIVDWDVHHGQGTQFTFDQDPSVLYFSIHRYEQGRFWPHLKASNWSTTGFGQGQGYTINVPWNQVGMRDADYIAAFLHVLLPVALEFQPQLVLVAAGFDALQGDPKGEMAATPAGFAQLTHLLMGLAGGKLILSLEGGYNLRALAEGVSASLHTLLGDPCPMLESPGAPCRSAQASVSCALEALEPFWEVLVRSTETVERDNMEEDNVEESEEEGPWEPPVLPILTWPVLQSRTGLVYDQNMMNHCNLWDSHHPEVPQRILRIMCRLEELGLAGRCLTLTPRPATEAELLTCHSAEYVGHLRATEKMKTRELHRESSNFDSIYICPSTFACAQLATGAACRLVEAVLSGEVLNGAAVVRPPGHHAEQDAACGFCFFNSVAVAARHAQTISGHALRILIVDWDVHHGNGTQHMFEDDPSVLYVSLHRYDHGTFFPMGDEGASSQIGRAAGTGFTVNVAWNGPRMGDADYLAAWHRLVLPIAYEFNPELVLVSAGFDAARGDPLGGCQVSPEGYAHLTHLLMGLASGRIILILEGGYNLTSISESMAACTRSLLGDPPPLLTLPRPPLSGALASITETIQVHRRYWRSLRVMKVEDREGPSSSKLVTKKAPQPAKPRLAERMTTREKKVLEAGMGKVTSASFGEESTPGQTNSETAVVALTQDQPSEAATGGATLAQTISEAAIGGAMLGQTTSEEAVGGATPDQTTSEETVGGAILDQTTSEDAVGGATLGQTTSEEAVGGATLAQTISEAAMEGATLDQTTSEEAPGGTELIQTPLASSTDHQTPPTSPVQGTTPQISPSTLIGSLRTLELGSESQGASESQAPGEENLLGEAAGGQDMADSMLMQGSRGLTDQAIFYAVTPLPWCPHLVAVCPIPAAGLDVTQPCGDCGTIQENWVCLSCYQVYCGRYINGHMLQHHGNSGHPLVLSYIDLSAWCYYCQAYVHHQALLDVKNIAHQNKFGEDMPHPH
Experimental: (§4) C. In Vitro Histone Deacetylase Activity of Class II HDACs.
(§5) FLAG-tagged HDAC1 and HDAC6 were expressed in TAg Jurkat cells and purified by immunoprecipitation using the anti-FLAG antibody. […] The proteins were used in in vitro HDAC assays with the compounds identified in the screen, using concentration of approximately 50 μM.
(§6) E. Histone isolation and substrate specificity determination. […] F. HDAC6 Mutagenesis. […] G. Cell culture and transfections. […] Cells were harvested 48 hours post-transfection. H. DNA Constructs

HDAC1 = molecular target: T2, HDAC1 (Homo sapiens, UniProt Q13547); assay: in vitro HDAC assay, release of 3H-acetate from labeled histones by immunoprecipitated FLAG-tagged HDAC1; format: biochemical; conditions: 300 nM TSA, 10 minutes prior to addition of labeled histones
T2 construct: made in house; host or cells: Sf9 insect cells (baculovirus, pVL1392)
Experimental: as §4, §5, §6

T2 sequence (Q13547 whole entry): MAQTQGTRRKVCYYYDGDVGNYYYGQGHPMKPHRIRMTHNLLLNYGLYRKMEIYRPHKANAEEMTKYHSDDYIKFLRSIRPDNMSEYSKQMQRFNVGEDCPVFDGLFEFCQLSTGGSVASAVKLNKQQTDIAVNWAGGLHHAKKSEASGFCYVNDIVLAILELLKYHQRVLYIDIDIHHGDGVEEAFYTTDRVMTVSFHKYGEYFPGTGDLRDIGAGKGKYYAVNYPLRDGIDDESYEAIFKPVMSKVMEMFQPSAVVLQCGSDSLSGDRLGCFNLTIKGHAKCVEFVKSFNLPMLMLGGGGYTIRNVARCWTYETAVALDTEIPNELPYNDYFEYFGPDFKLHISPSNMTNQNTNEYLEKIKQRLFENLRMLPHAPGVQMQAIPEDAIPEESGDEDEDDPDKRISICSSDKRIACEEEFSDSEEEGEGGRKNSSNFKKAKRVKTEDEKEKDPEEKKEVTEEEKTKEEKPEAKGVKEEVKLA
Sequence of HDAC5 (Homo sapiens, UniProt Q9UQL6) (Q9UQL6 whole entry D593E): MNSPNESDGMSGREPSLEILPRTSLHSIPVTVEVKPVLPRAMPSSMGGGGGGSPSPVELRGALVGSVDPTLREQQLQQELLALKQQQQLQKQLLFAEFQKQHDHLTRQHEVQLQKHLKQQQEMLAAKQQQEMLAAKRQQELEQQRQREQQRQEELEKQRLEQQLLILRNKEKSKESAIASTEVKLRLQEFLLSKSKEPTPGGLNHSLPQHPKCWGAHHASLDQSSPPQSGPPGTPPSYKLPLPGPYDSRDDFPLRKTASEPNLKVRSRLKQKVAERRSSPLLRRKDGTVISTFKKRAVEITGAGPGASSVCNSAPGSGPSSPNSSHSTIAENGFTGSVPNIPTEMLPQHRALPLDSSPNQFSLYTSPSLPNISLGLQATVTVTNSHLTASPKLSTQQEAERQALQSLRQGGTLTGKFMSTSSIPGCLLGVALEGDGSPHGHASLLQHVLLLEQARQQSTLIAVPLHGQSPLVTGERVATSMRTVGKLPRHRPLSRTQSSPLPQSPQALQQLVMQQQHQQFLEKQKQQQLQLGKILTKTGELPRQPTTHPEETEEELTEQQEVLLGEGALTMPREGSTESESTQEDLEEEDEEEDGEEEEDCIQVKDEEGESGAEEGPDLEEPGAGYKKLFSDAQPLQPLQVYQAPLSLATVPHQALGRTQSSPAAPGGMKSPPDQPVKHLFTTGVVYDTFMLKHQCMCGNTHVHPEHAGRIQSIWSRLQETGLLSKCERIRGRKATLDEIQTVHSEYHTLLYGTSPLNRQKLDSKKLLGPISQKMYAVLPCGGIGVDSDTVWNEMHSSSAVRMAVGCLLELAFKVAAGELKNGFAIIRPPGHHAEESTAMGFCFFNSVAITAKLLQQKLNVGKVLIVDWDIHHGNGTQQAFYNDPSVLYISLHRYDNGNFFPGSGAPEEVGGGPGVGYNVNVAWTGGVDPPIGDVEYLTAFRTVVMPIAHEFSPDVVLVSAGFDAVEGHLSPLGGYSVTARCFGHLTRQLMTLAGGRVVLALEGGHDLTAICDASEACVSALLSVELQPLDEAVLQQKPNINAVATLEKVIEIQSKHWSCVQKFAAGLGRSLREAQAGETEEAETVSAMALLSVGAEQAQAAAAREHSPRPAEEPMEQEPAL
Sequence of HDAC4 (Homo sapiens, UniProt P56524) (P56524 whole entry A373T): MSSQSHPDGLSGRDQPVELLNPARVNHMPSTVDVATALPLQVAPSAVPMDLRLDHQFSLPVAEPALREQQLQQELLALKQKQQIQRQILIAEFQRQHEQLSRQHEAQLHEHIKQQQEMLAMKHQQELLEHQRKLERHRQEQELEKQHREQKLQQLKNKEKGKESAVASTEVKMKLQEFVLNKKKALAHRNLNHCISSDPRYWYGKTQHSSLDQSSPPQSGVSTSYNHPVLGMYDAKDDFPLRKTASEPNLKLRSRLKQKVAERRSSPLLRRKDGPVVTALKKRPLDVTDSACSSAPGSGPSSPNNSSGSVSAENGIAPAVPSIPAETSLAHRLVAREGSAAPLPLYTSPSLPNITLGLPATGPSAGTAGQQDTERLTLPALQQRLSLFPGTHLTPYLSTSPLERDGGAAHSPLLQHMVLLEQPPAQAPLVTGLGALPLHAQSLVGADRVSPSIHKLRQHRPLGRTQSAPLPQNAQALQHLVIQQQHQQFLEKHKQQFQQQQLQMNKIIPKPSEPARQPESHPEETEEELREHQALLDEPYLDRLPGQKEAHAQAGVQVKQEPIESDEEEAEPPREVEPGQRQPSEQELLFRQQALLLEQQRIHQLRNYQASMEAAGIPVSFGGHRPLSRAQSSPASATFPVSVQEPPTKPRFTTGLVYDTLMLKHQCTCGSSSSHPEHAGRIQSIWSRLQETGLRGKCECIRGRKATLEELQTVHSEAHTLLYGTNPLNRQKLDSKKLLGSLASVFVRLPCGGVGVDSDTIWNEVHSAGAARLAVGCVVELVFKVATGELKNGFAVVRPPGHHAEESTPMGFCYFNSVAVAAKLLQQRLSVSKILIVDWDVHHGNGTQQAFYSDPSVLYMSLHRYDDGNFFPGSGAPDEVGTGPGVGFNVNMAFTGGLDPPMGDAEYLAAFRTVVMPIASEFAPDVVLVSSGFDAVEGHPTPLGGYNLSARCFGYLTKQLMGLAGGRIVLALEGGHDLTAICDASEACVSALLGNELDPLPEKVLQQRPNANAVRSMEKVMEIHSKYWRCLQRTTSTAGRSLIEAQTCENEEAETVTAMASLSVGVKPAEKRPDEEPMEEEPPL

SMILES	HDAC4 association with HDAC3 (HDAC4 [1]; Western blot)	HDAC4 association with importin α (HDAC4 [1]; Western blot)	binding of HDAC4 to either 14-3-3 isoform (HDAC4 [1]; Western blot)	HDAC activity of the purified HDAC4 complex (HDAC4 [1])	HDAC5 association with HDAC3 (HDAC5 [2])	binding of HDAC5 to either 14-3-3 isoform (HDAC5 [2])	HDAC activity of the purified HDAC5 complex (HDAC5 [2])	HDAC4 deacetylation activity in the presence of TSA (HDAC4 [3])	HDAC5 deacetylation activity in the presence of TSA (HDAC5 [4])	HDAC6 deacetylation activity in the presence of TSA (HDAC6)	HDAC1 deacetylation activity in the presence of TSA (HDAC1)
COC[C@@H]([C@H](O)[C@H](O)C(=O)NCC[C@H](C)c1nc(/C=C/C[C@@H]2O[C@]3(C[C@@H](O)[C@@H]2C)O[C@H]([C@H](C[C@H](O)[C@H](C)[C@H](O)[C@H](C)/C=C(C)/C(C)=C/C=C/C(C)=C\C#N)OC)[C@H](OP(=O)(O)O)C3(C)C)co1)N(C)C [calyculin A]	loss of interaction	fails to associate	increase	dramatic reduction	loss of interaction	increase	dramatic reduction				
CN[C@@H]1C[C@H]2O[C@@](C)([C@@H]1OC)n1c3ccccc3c3c4c(c5c6ccccc6n2c5c31)C(=O)NC4 [staurosporine]	increase		decrease	increase	increase	decrease	increase				
CC(/C=C/C(=O)NO)=C\[C@@H](C)C(=O)c1ccc(N(C)C)cc1 [TSA, trichostatin A]								greatly reduced	greatly reduced	greatly reduced	greatly reduced
